Measurements published in US20040186072A1, “Use of esters of long-chain fatty acids for treatment of autoimmune diseases” (priority 2001, published 2004).

Legend:
[1] = stated as known; cited from earlier work
[2] = tested on: EAE induced by PLP 139-151 peptide in SJL/J mice; experiment: EAE induced by PLP 139-151/CFA in SJL/J mice, clinical score 0-5; format: in vivo; conditions: for mean clinical score on day 22: Example 5: 100 μl s.c. daily from day 11, PBS control 2.5±0.84
[3] = tested on: EAE induced with mouse spinal cord homogenate (MSCH); experiment: EAE induced by mouse spinal cord homogenate (MSCH)/CFA in SJL/J mice; format: in vivo; conditions: for clinical severity: 100 μl s.c. daily from day 4, all control mice had died by day 15, FIG. 6
[4] = Example 2: 100 μl i.p. daily day 0-50, followed until day 70

## CCCCCCCC/C=C\CCCCCCCC(=O)OCC [EOA, ethyl oleate]
[1]
  toxicity when injected into humans: non-toxic when injected into humans
[2]; Example 1: EOA 100 μl s.c. daily day 0-11, then days 13, 15, 17, 20, 23, 26, untreated control 5 out of 5
  mice that developed EAE (incidence): 2 out of the 5
[2]; Example 1: EOA 100 μl s.c. from day 0, control 1.67±0.29
  mean maximal severity (clinical score 0-5): 0.5±0.32
[2]; Example 1: s.c. from day 0, FIG. 1
  effect on clinical severity and incidence of EAE: significantly reduced clinical severity and incidence of EAE
[2]; [4]
  mean maximal clinical score (0-5): 0.63±0.28
  mice that developed EAE (incidence): 5 out of 8
[2]; Example 2: i.p. daily day 0-50, treatment stopped day 50
  time mice remained stable after cessation of treatment: 20 days
[2]; Example 4: 100 μl i.p. daily from day 12 (clinical onset) to day 35, control 3.5±0.69
  maximal mean score at which disease progression was arrested: 0.83±0.53
[2]; Example 4: daily i.p. treatment reinstated from day 40 for 40 days, FIG. 4C, untreated control 3.1±0.7
  mean maximal clinical score, partially recovered subgroups (EOA-P, IFA-P): 1.3±0.19
[2]; Example 4: i.p. daily day 12-35, FIG. 4A
  therapeutic effect on ongoing EAE: immediately arrested the worsening of the clinical symptoms of EAE
[2]; Example 4: i.p. daily day 12-35, then no treatment
  state on day 40 after withholding treatment: remained stable with no evidence of disease exacerbation or development of relapses
[2]; Example 4: i.p. daily from day 12
  time to complete reversal of clinical symptoms after treatment was initiated: 8 to 10 days
[2]; Example 4: i.p. daily from day 12, control 3.5±0.69
  mean maximal clinical score on days 20-21: 0.17±0.11
[2]; Example 4: partially recovered subgroups, daily i.p. from day 40
  effect of second course of treatment on clinical signs: no further ameliorating effect
[2]
  mean clinical score on day 22: 0.83±0.40
[3]
  clinical severity: markedly reduced clinical severity

## mannide mono-oleate [MMO]
[1]
  toxicity when injected into humans: non-toxic when injected into humans
[2]; Example 3: 100 μl i.p. daily from day 0, FIG. 3
  effect on disease development: completely abrogated disease development
[2]; Example 3: i.p. daily day 0-25, 15 days after injections stopped, control 2.6±0.99
  mean maximal clinical score on day 40: 0.17±0.11
[2]; Example 3: i.p. daily day 0-25, 48 days after injections stopped, control 3.2±0.75
  mean maximal clinical score on day 73: 0.67±0.44
[2]; Example 3: i.p. daily day 0-25, from day 25 on
  mice in which very mild clinical signs appeared after treatment was discontinued: 3 out of the 6
[2]; Example 3: i.p. daily from day 0, all 6 treated mice, control score 3.4±0.69
  clinical signs on day 20: free of any clinical sign of EAE
[2]
  mean clinical score on day 22: 0.08±0.08
[3]; 100 μl s.c. daily from day 4, FIG. 6
  disease development: almost complete abrogation of disease development
[3]
  clinical severity: markedly reduced clinical severity
